These results are taken from patent publication US20230270805A1, “A COMPOSITION COMPRISING AN EXTRACT OF ALDER TREE OR THE ISOLATED COMPOUNDS THEREFROM FOR TREATING AND PREVENTING SKELETON MUSCLE-RELATED DISORDER AND THE USE THEREOF” (Sookmyung Women's University Indusutry-Academic Cooperation …, priority 2020, published 2023).

For one assay, the system named is MHC. The experiment in a line: Western blot of MHC in dexamethasone-treated myotube cells (in vitro model of muscle loss). The settings on record: myotube cells treated with dexamethasone alone; untreated cells = 1. Format: cell-based, mouse. On the procedure:
(§1) In order to confirm the inhibitory effect of the inventive extract obtained in Example, dexamethasone was treated to myotube cell to establish in vitro model of muscle loss and following experiment was performed according to the procedure disclosed in the previous literature (Int. J. Mol. Med. 2015, 36:29).
(§2) For Western blot analysis, about 3×10^4 mouse myoblast cell cells (C2C12; CRL-1772 ATCC) were incubated in 60 mm plates for 24 hours, and various concentrations of each inventive extract (0, 1, 10, 100 ng/mL) was added to the differentiation medium for 3 days to differentiate. The protein extract was obtained from the differentiated cells using by lysis buffer [25 mM Tris-HCl (pH 7.5), 100 mM NaCl, 1% NP-40, 1% sodium deoxycholate, 0.1% sodium dodecyl sulfate (SDS), and protease inhibitor cocktail, Calbiochem, Darmstadt, Germany). The protein extract (25 μg) was performed to SDS-polyacrylamide gel electorphoresis (PAGE) and transferred to polyvinylidene fluoride (PVDF) membranes.
Primary mouse anti-MHC (sc-376157, Santa Cruz) or primary mouse anti-MAFbx (sc-166806, Santa Cruz) was conjugated to the blots at 4° C., for 12 hrs and then conjugated with anti-mouse secondary antibody conjugated to Horseradish peroxidase (goat anti-mouse IgG-HRP, sc-2005, Santa Cruz) to analyze the amount of MHC and MAFbx protein by chemiluminescence method. […]
For orientation: A western blot detects proteins with antibodies after separation by electrophoresis.

Another assay deals with MAFbx. The experiment in a line: Western blot of MAFbx in dexamethasone-treated myotube cells (in vitro model of muscle loss). Format: cell-based, mouse. The settings on record: myotube cells treated with dexamethasone alone; untreated cells = 1. The method, then:
as §1
In particular, following experiment was performed according to the procedure disclosed in the previous literature to find out whether inventive extract takes an effect on MAFbx expression during muscle protein degradation by dexamethasone treatment since the activity of MAFbx, a muscle proteolytic enzyme, is known to induce muscle protein loss (Biomed. Pharmacother. 2017, 95:1486)
as §2, with “membranes. […]” for “membranes.”

Assay [1] has as its system C57/BL6 mice. The experiment in a line: Treadmill test in dexamethasone animal model of muscle loss. It counts as in vivo, mouse. The settings on record: dexamethasone 1 mg/kg s.c. alone. On the procedure: (§3) Dexamethasone, a synthetic glucocorticoid, was injected subcutaneously into C57/BL6 mouse mice to establish an animal model of muscle loss and following experiment was performed.
(§4) To establish an in vivo model of muscle loss, 6 weeks-old male C57/BL6 mice (Raon Bio, 6 weeks old, weight range: 32-36 g) were acclimated for one-week, and then weighed animals determined to be healthy during the acclimatization period. The mice close to the average weight were selected using a simple random sampling method and were classified into five groups, namely, (a) a control group, (b) a muscle loss control group (treated with dexamethasone 1 mg/kg), (c) test sample group treated with inventive extract 250 mg/kg and dexamethasone, (d) test sample group treated with inventive extract 500 mg/kg and dexamethasone, and (e) positive control treated with oxymetholone (Celltrion Co. Ltd, ATC #A14AA05, 10 mg/kg) and dexamethasone.
(§5) The inventive Extract and oxymetholone were administered once to the mice daily for 4 weeks and dexamethasone was injected subcutaneously for 10 days from 10 days before the end of co-treatment of inventive extract and oxymetholone.
(§6) Both of inventive extract and oxymetholone were forcibly administered orally using zonde for oral administration after holding and fixing the skin of the animal's poll area, and dexamethasone was injected slowly subcutaneously after inserting a syringe into the dorsal skin fold of the animal held on the thumb and index finger, slightly aspirating whether it was injected normally, and confirming that no blood came out.
The determination was performed on the 14th and 28th days after the administration of test sample.

Assay [2] is described as follows: Body weight in dexamethasone animal model of muscle loss. It counts as in vivo, mouse. The settings on record: dexamethasone 1 mg/kg s.c. alone. The method, then:
as §3, §4, §5, §6
The body weight of every animal was measured once a week for 4 weeks from the day of inventive extract administration.

Assay [3] relates to C57/BL6 mice. The assay is described as follows: Grip strength test in dexamethasone animal model of muscle loss. It counts as in vivo, mouse. Particulars: dexamethasone 1 mg/kg s.c. alone. On the procedure: as §3, §4, §5, §6
The grip strength of mice was determined as follows; after grabbing the animal's tail and placing it on the grid, the front foot and body were pulled at the same speed until the front foot and body were held at the grid with the front paw, and the average value was calculated after three experimental repetitions. The determination was performed on the 14th and 28th days after the administration of test sample.

The subject of assay [4] is C57/BL6 mice. The assay is described as follows: Weight of muscle mass, epididymal fat and liver in dexamethasone animal model of muscle loss. It counts as in vivo, mouse. Particulars: dexamethasone 1 mg/kg s.c. alone, autopsy at 4 weeks. The method, then:
as §3, §4, §5, §6
The mice were anesthetized with anesthetic to prevent the movement of experimental animals and sacrificed to minimize pain to dissect them. All instruments used during the experiment were sterilized and disinfected and their liver and epididymis fat were harvested.
The gastrocnemius muscle and soleus muscle of the mice were separated, washed in saline, drained, and weighed.
After autopsy at 4 weeks after administration, the weight of liver and Epididymis fat was weighed to calculate weight-to-weight to compare the relative differences between the organ's weight in the groups.

In turn, `C[C@@H]1C[C@H]2[C@@H]3CCC4=CC(=O)C=C[C@]4(C)[C@@]3(F)[C@@H](O)C[C@]2(C)[C@@]1(O)C(=O)CO` [Dexa, dexamethasone] displayed an MHC expression with MHC of 0.7 fold. In the assay with MAFbx, this compound yielded an MAFbx expression of 1.9 fold. Moreover, the entries for the “motility (treadmill)” value with C57/BL6 mice [1] (2 weeks) and in the assay with C57/BL6 mice [1] (4 weeks) were 798.85 ± 14.33 meter and 745.73 ± 30.01 meter, respectively. Moreover, the body weight is 22.33 ± 1.11 gram in assay [2] (0 week); 22.84 ± 1.54 gram in assay [2] (1 week); 23.46 ± 1.60 gram in assay [2] (2 weeks); 23.57 ± 1.81 gram in assay [2] (3 weeks); 23.57 ± 1.76^ab gram in assay [2] (4 weeks). For the same compound, the grip strength in the assay on C57/BL6 mice [3] (2 weeks) is reported as 1.05 ± 0.08 N; in the assay on C57/BL6 mice [3] (4 weeks) it was 0.94 ± 0.12^b N. Further, in the assay on C57/BL6 mice [4], the “absolute weight, epididymal fat” value is 0.51 ± 0.10 gram. The “absolute weight, calf muscle” value with C57/BL6 mice [4] (gastrocnemius) was 0.242 ± 0.014 gram. Also, in the assay with C57/BL6 mice [4] (soleus), the “absolute weight, fluke muscle” value is recorded as 0.014 ± 0.002^c gram.
